Values quoted from earlier work, collected in patent US20240033213A1, “TOPICAL PHARMACEUTICAL FORMULATION AND METHOD FOR THE TREATMENT OF SYNDROMES ASSOCIATED WITH CHRONIC PELVIC PAIN” (CURALEAF INTERNATIONAL LIMITED, priority 2020, published 2024).

Target: T1, TRPV1 receptor (Rattus norvegicus, UniProt O35433)
T1 construct: CBD Effects on TRPV1 Signaling Pathways in Cultured DRG Neurons; host or cells: cultured DRG sensory neurons (endogenous TRPV1)
Settings: sensory neurons in an animal model, in vitro

T1 sequence (O35433 whole entry): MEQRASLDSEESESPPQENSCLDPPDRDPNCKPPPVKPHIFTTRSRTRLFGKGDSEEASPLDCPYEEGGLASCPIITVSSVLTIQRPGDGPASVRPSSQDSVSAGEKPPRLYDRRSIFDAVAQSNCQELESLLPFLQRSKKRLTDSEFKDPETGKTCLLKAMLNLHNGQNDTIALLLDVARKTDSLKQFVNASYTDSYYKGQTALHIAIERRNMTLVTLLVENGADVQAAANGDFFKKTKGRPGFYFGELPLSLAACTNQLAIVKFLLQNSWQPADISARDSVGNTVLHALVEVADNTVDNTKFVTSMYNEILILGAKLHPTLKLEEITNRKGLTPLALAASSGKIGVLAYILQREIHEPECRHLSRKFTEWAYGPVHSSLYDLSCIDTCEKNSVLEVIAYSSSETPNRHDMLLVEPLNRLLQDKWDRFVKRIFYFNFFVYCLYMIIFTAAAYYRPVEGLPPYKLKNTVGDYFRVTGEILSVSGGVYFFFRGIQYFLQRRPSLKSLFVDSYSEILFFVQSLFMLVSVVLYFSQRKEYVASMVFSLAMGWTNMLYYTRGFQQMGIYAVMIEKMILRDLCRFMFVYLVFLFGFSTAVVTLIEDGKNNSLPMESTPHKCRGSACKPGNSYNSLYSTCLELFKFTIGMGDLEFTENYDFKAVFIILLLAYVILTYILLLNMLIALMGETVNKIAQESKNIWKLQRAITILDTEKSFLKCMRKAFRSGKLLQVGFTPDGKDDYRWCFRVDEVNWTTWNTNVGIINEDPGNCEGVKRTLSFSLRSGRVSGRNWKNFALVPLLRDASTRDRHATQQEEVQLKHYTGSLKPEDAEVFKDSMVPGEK

C=C(C)[C@@H]1CCC(C)=C[C@H]1c1c(O)cc(CCCCC)cc1O [cannabidiol]
Effect on neuronal hypersensitivity following TRPV1 activation: inhibit neuronal hypersensitivity following TRPV1 activation
